This passage reports MIC results from patent US20170260178A1 (SPERO GYRASE, INC., priority 2012, published 2017).

Converted amounts (≈) assume the structure as drawn.

In one test the test system is S. pyogenes (ATCC 51339). In words: Bacterial assay: MIC against S. pyogenes. The format is cell-based, Streptococcus pyogenes. The note with it: Streptococcus pyogenes, ATCC51339, read-out: minimal inhibitory concentration (MIC).
The next test relates to S. aureus (ATCC 29213). The experiment in a line: Bacterial assay: MIC against S. aureus. The format is cell-based, Staphylococcus aureus. To be noted: Staphylococcus aureus, ATCC29213, read-out: minimal inhibitory concentration (MIC).

In the case of `CCNC(=O)Nc1nc2cc(-c3cnc(C(C)(C)O)nc3)cc(-c3ccc(CN4CCOCC4)cn3)c2s1` [Compound 25, 1-ethyl-3-[5-[2-(1-hydroxy-1-methyl-ethyl)pyrimidin-5-yl]-7-[5-(morpholinomethyl)-2-pyridyl]-1,3-benzothiazol-2-yl]urea], the MIC in the test with S. pyogenes (ATCC 51339) and with S. aureus (ATCC 29213) was not above 1 µg/mL each time.

For `CCNC(=O)Nc1nc2cc(-c3cncc(C(C)O)c3)cc(-c3ccccn3)c2s1` (stereo not drawn) [Compound 197, 1-ethyl-3-[5-[5-(1-hydroxyethyl)-3-pyridyl]-7-(2-pyridyl)-1,3-benzothiazol-2-yl]urea], the MIC in the test on S. pyogenes (ATCC 51339) and with S. aureus (ATCC 29213) was not above 1 µg/mL in each case.

With `CCNC(=O)Nc1nc2cc(-c3cnc(C(C)(C)O)nc3)c(F)cc2s1` [Compound 177, 1-ethyl-3-[6-fluoro-5-[2-(1-hydroxy-1-methyl-ethyl)pyrimidin-5-yl]-1,3-benzothiazol-2-yl]urea], the MIC is 2 µg/mL (≈ 5.33 µM) in the test with S. pyogenes (ATCC 51339) and not above 1 µg/mL in the test with S. aureus (ATCC 29213).

`CCNC(=O)Nc1nc2cc(-c3cnc(C(C)(C)O)nc3)cc(-c3cc(CN4CC[S+]([O-])CC4)ccn3)c2s1` [Compound 188, 1-ethyl-3-[5-[2-(1-hydroxy-1-methyl-ethyl)pyrimidin-5-yl]-7-[4-[(1-oxo-1,4-thiazinan-4-yl)methyl]-2-pyridyl]-1,3-benzothiazol-2-yl]urea]: the MIC in the test on S. pyogenes (ATCC 51339) and in the test with S. aureus (ATCC 29213) was not above 1 µg/mL throughout.

With `CCNC(=O)Nc1nc2cc(-c3cnc(C(C)(C)O)nc3)cc(-c3cc(CN4CCC(F)(F)CC4)ccn3)c2s1` [Compound 156, 1-[7-[4-[(4,4-difluoro-1-piperidyl)methyl]-2-pyridyl]-5-[2-(1-hydroxy-1-methyl-ethyl)pyrimidin-5-yl]-1,3-benzothiazol-2-yl]-3-ethyl-urea], the MIC with S. pyogenes (ATCC 51339) and with S. aureus (ATCC 29213) was not above 1 µg/mL throughout.

Consider `CCNC(=O)Nc1nc2cc(-c3cnc(C(C)(C)O)nc3)cc(-c3cc(CN4CCC(O)C4)ccn3)c2s1` (stereo not drawn) [Compound 29, 1-ethyl-3-[5-[2-(1-hydroxy-1-methyl-ethyl)pyrimidin-5-yl]-7-[4-[(3-hydroxypyrrolidin-1-yl)methyl]-2-pyridyl]-1,3-benzothiazol-2-yl]urea], for which the MIC in the test with S. pyogenes (ATCC 51339) and in the test with S. aureus (ATCC 29213) was not above 1 µg/mL in each case.

With `CCNC(=O)Nc1nc2cc(-c3cnc(C(C)(C)O)nc3)cc(-c3nccc(NCCO)n3)c2s1` [Compound 85, 1-ethyl-3-[7-[4-(2-hydroxyethylamino)pyrimidin-2-yl]-5-[2-(1-hydroxy-1-methyl-ethyl)pyrimidin-5-yl]-1,3-benzothiazol-2-yl]urea], the MIC in the test with S. pyogenes (ATCC 51339) was not above 1 µg/mL; in the test with S. aureus (ATCC 29213), 2 µg/mL (≈ 4.04 µM).

With `CCNC(=O)Nc1nc2cc(-c3cnc(C(C)O)nc3)cc(-c3cc(CN4CC(O)C4)ccn3)c2s1` (stereo not drawn) [Compound 65, 1-ethyl-3-[7-[4-[(3-hydroxyazetidin-1-yl)methyl]-2-pyridyl]-5-[2-(1-hydroxyethyl)pyrimidin-5-yl]-1,3-benzothiazol-2-yl]urea], the MIC was not above 1 µg/mL in the test on S. pyogenes (ATCC 51339) and 2 µg/mL (≈ 3.96 µM) in the test on S. aureus (ATCC 29213).

As to `CCNC(=O)Nc1nc2cc(-c3cnc(C(C)O)nc3)cc(-c3nccc(N4CCC(C)(C(=O)O)CC4)n3)c2s1` (stereo not drawn) [Compound 117, 1-[2-[2-(ethylcarbamoylamino)-5-[2-(1-hydroxyethyl)pyrimidin-5-yl]-1,3-benzothiazol-7-yl]pyrimidin-4-yl]-4-methyl-piperidine-4-carboxylic acid], the MIC with S. pyogenes (ATCC 51339) is not above 1 µg/mL; in the test on S. aureus (ATCC 29213) it was 16 µg/mL (≈ 28.4 µM).

As to `CCNC(=O)Nc1nc2cc(-c3cnc(C(C)O)nc3)cc(-c3cc(CN4CC(C)(O)C4)ccn3)c2s1` (stereo not drawn) [Compound 66, 1-ethyl-3-[5-[2-(1-hydroxyethyl)pyrimidin-5-yl]-7-[4-[(3-hydroxy-3-methyl-azetidin-1-yl)methyl]-2-pyridyl]-1,3-benzothiazol-2-yl]urea], the MIC is not above 1 µg/mL in the test on S. pyogenes (ATCC 51339) and 2 µg/mL (≈ 3.85 µM) in the test on S. aureus (ATCC 29213).

Take `CCNC(=O)Nc1nc2cc(-c3cnc(C(C)(C)O)nc3)cc(-c3ccnc(N4CCC(C)(C(=O)O)CC4)n3)c2s1` [Compound 52, 1-[4-[2-(ethylcarbamoylamino)-5-[2-(1-hydroxy-1-methyl-ethyl)pyrimidin-5-yl]-1,3-benzothiazol-7-yl]pyrimidin-2-yl]-4-methyl-piperidine-4-carboxylic acid]: the MIC in the test with S. pyogenes (ATCC 51339) is not above 1 µg/mL; in the test with S. aureus (ATCC 29213) it was 2 µg/mL (≈ 3.47 µM).

For the molecule `CCNC(=O)Nc1nc2cc(-c3cnc(C(C)(C)O)nc3)cc(-c3cc(NC4CCC(C)(C(=O)O)CC4)ccn3)c2s1` (stereo not drawn) [Compound 54, 4-[[2-[2-(ethylcarbamoylamino)-5-[2-(1-hydroxy-1-methyl-ethyl)pyrimidin-5-yl]-1,3-benzothiazol-7-yl]-4-pyridyl]amino]-1-methyl-cyclohexanecarboxylic acid], the MIC in the test with S. pyogenes (ATCC 51339) and in the test with S. aureus (ATCC 29213) was not above 1 µg/mL in each case.

As for `CCNC(=O)Nc1nc2cc(-c3cnc(C(C)(C)O)nc3)cc(-c3cc(N4CCC(C(=O)O)CC4)ccn3)c2s1` [Compound 110, 1-[2-[2-(ethylcarbamoylamino)-5-[2-(1-hydroxy-1-methyl-ethyl)pyrimidin-5-yl]-1,3-benzothiazol-7-yl]-4-pyridyl]piperidine-4-carboxylic acid], the figures for the MIC in the test on S. pyogenes (ATCC 51339) and in the test with S. aureus (ATCC 29213) were not above 1 µg/mL and 2 µg/mL (≈ 3.56 µM), respectively.

`CCNC(=O)Nc1nc2cc(-c3cnc(C(C)O)nc3)cc(-c3cc(CN4CC[C@@H](O)C4)ccn3)c2s1` (stereo partly drawn) [Compound 77, 1-ethyl-3-[5-[2-(1-hydroxyethyl)pyrimidin-5-yl]-7-[4-[[(3R)-3-hydroxypyrrolidin-1-yl]methyl]-2-pyridyl]-1,3-benzothiazol-2-yl]urea]: the MIC in the test with S. pyogenes (ATCC 51339) and with S. aureus (ATCC 29213) was not above 1 µg/mL throughout.

Consider `CCNC(=O)Nc1nc2cc(-c3cnc(C(C)(C)O)nc3)cc(N3CCOCC3)c2s1` [Compound 151, 1-ethyl-3-[5-[2-(1-hydroxy-1-methyl-ethyl)pyrimidin-5-yl]-7-morpholino-1,3-benzothiazol-2-yl]urea], for which the MIC in the test on S. pyogenes (ATCC 51339) and with S. aureus (ATCC 29213) was 2 µg/mL (≈ 4.52 µM) each time.

With `CCNC(=O)Nc1nc2cc(-c3cnc(C(C)(C)O)s3)cc(-c3ccccn3)c2s1` [Compound 48, 1-ethyl-3-[5-[2-(1-hydroxy-1-methyl-ethyl)thiazol-5-yl]-7-(2-pyridyl)-1,3-benzothiazol-2-yl]urea], the MIC in the test on S. pyogenes (ATCC 51339) and with S. aureus (ATCC 29213) was not above 1 µg/mL each time.

As for `CCNC(=O)Nc1nc2cc(-c3ccc(C(O)c4cccnc4)nc3)c(F)cc2s1` (stereo not drawn) [Compound 4, 1-ethyl-3-[6-fluoro-5-[6-[hydroxy(3-pyridyl)methyl]-3-pyridyl]-1,3-benzothiazol-2-yl]urea], the MIC in the test with S. pyogenes (ATCC 51339) and with S. aureus (ATCC 29213) was not above 1 µg/mL each time.

Regarding `CCNC(=O)Nc1nc2cc(-c3cnc(C4(O)CCN(C)CC4)nc3)cc(-c3ccccn3)c2s1` [Compound 128, 1-ethyl-3-[5-[2-(4-hydroxy-1-methyl-4-piperidyl)pyrimidin-5-yl]-7-(2-pyridyl)-1,3-benzothiazol-2-yl]urea], the MIC in the test on S. pyogenes (ATCC 51339) and in the test with S. aureus (ATCC 29213) was not above 1 µg/mL in each case.

`CCNC(=O)Nc1nc2cc(-c3cnc(C(C)(C)O)nc3)cc(-c3cc(CN4CCCC4)ccn3)c2s1` [Compound 26, 1-ethyl-3-[5-[2-(1-hydroxy-1-methyl-ethyl)pyrimidin-5-yl]-7-[4-(pyrrolidin-1-ylmethyl)-2-pyridyl]-1,3-benzothiazol-2-yl]urea]: the MIC with S. pyogenes (ATCC 51339) and with S. aureus (ATCC 29213) was not above 1 µg/mL each time.

With `CCNC(=O)Nc1nc2cc(-c3cnc(C(C)O)nc3)cc(-c3nccc(N4CCOCC4)n3)c2s1` (stereo not drawn) [Compound 94, 1-ethyl-3-[5-[2-(1-hydroxyethyl)pyrimidin-5-yl]-7-(4-morpholinopyrimidin-2-yl)-1,3-benzothiazol-2-yl]urea], the MIC with S. pyogenes (ATCC 51339) and in the test on S. aureus (ATCC 29213) was not above 1 µg/mL each time.

With `CCCNC(=O)Nc1nc2cc(-c3cnc(C(C)(C)O)nc3)cc(-c3ccccn3)c2s1` [Compound 57, 1-[5-[2-(1-hydroxy-1-methyl-ethyl)pyrimidin-5-yl]-7-(2-pyridyl)-1,3-benzothiazol-2-yl]-3-propyl-urea], the MIC with S. pyogenes (ATCC 51339) was 2 µg/mL (≈ 4.46 µM); in the test with S. aureus (ATCC 29213), not above 1 µg/mL.

`CCNC(=O)Nc1nc2cc(-c3cnc(C(C)(C)O)nc3)cc(-c3cc(CN4CCN(C)CC4)ccn3)c2s1` [Compound 159, 1-ethyl-3-[5-[2-(1-hydroxy-1-methyl-ethyl)pyrimidin-5-yl]-7-[4-[(4-methylpiperazin-1-yl)methyl]-2-pyridyl]-1,3-benzothiazol-2-yl]urea]: the MIC with S. pyogenes (ATCC 51339) was not above 1 µg/mL; in the test with S. aureus (ATCC 29213) it was 2 µg/mL (≈ 3.66 µM).

On to `CCNC(=O)Nc1nc2cc(-c3cnc(C(C)(C)O)cn3)cc(-c3ccccn3)c2s1` [Compound 49, 1-ethyl-3-[5-[5-(1-hydroxy-1-methyl-ethyl)pyrazin-2-yl]-7-(2-pyridyl)-1,3-benzothiazol-2-yl]urea], for which the MIC in the test with S. pyogenes (ATCC 51339) and in the test on S. aureus (ATCC 29213) was not above 1 µg/mL throughout.

Take `CCNC(=O)Nc1nc2cc(-c3cnc(C(C)(C)O)nc3)cc(-c3cc(CN4CCS(=O)(=O)CC4)ccn3)c2s1` [Compound 191, 1-[7-[4-[(1,1-dioxo-1,4-thiazinan-4-yl)methyl]-2-pyridyl]-5-[2-(1-hydroxy-1-methyl-ethyl)pyrimidin-5-yl]-1,3-benzothiazol-2-yl]-3-ethyl-urea]: the MIC in the test with S. pyogenes (ATCC 51339) and with S. aureus (ATCC 29213) was not above 1 µg/mL throughout.

With `CCNC(=O)Nc1nc2cc(-c3cnc(C(C)(C)O)nc3)cc(-c3nccc(N4CC(C)(O)C4)n3)c2s1` [Compound 86, 1-ethyl-3-[7-[4-(3-hydroxy-3-methyl-azetidin-1-yl)pyrimidin-2-yl]-5-[2-(1-hydroxy-1-methyl-ethyl)pyrimidin-5-yl]-1,3-benzothiazol-2-yl]urea], the values for the MIC in the test with S. pyogenes (ATCC 51339) and in the test with S. aureus (ATCC 29213) were not above 1 µg/mL and 8 µg/mL (≈ 15.4 µM), respectively.

Turning to `CCNC(=O)Nc1nc2cc(-c3ccc(C(C)(C)O)nc3)c(O)c(CN(C)C)c2s1` [Compound 41], the MIC in the test with S. pyogenes (ATCC 51339) and in the test with S. aureus (ATCC 29213) was 16 µg/mL (≈ 37.2 µM) throughout.

Turning to `CCNC(=O)Nc1nc2cc(-c3cnc(C(C)(C)O)nc3)cc(-c3cncc(CN4CCOCC4)n3)c2s1` [Compound 102, 1-ethyl-3-[5-[2-(1-hydroxy-1-methyl-ethyl)pyrimidin-5-yl]-7-[6-(morpholinomethyl)pyrazin-2-yl]-1,3-benzothiazol-2-yl]urea], the MIC in the test with S. pyogenes (ATCC 51339) and with S. aureus (ATCC 29213) was 16 µg/mL (≈ 29.9 µM) in each case.
